Results on 12 molecules are retold here after ChEMBL document CHEMBL1201862, “PubChem BioAssay data set” (2004).

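Step 1: Grow cells in 96-well plates. Step 2: Expose to compound for 48 hours at 5 concentrations. Step 3: Interpolate endpoints linearly; if unreached, use highest concentration. GI50 = concentration required for 50% inhibition of growth.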 Calls of active or inactive are those of the source. Rule as the data show it: active = GI50 up to about 1.1 µM and inactive = higher.

Among the test systems are A498; COLO 205; EKVX; HCT-116; HOP-92; HT-29; IGROV-1; NCI-H226; NCI-H23; NCI-H460; NCI-H522; OVCAR-4; OVCAR-8; SF-539; SN12C; UACC-62.
Assay in all cases: NCI tumour cell line growth inhibition, 48 h

Take `C[C@@H](c1ccccc1)N(CC#N)C1CCC[C@H]1O` (stereo not given in full): the GI50 in the experiment with A498, in the experiment with COLO 205, in the experiment with EKVX, in the experiment on HCT-116, in the experiment with HOP-92 and with HT-29 was > 100 µM (inactive) in each case. Further, the GI50 in the experiment with IGROV-1, with NCI-H226, in the experiment with NCI-H23, in the experiment with NCI-H460, with NCI-H522 and with OVCAR-4 was > 100 µM (inactive) throughout. Further, the GI50 with OVCAR-8, in the experiment with SF-539, with SN12C and in the experiment with UACC-62 was > 100 µM (inactive) throughout.
Take `C=C(CN(C)C)C(=O)c1ccc(C(=O)C(=C)CN(C)C)cc1`: the GI50 in the experiment on A498, in the experiment on COLO 205, in the experiment with EKVX, in the experiment with HCT-116, in the experiment on HOP-92 and with HT-29 was > 100 µM (inactive) each time. Moreover, the GI50 in the experiment with IGROV-1, with NCI-H226, with NCI-H23, with NCI-H460, with NCI-H522 and in the experiment on OVCAR-4 was > 100 µM (inactive) each time. Further, the GI50 with OVCAR-8, in the experiment with SF-539, in the experiment on SN12C and in the experiment on UACC-62 was > 100 µM (inactive) throughout.
Turning to `COC(=O)C1CC(C(=O)OC)c2nc3cc([N+](=O)[O-])ccc3nc21` (stereo not given), the GI50 with A498 is > 100 µM (inactive); with COLO 205 it was 49.1 µM (inactive); in the experiment on EKVX it was > 81.3 µM (inactive); with HCT-116, 33.7 µM (inactive); in the experiment on HOP-92 it was > 100 µM (inactive); with HT-29, 51.3 µM (inactive). The GI50 was 80.7 µM (inactive) in the experiment on IGROV-1; > 100 µM (inactive) with NCI-H226; > 61.5 µM (inactive) in the experiment with NCI-H23; 65.6 µM (inactive) with NCI-H460; 7.93 µM (inactive) in the experiment on NCI-H522; > 100 µM (inactive) in the experiment on OVCAR-4. Moreover, the GI50 in the experiment on OVCAR-8 was > 90.4 µM (inactive); in the experiment with SF-539 it was 41 µM (inactive); with SN12C, > 79.3 µM (inactive); in the experiment on UACC-62 it was 22.6 µM (inactive).
As for `CC1(C)O[C@@H](CCl)C[C@@H](C#N)O1`, the GI50 in the experiment with A498, in the experiment with COLO 205, in the experiment on EKVX, in the experiment on HCT-116, in the experiment on HOP-92 and in the experiment with HT-29 was > 100 µM (inactive) in each case. Also, the GI50 in the experiment on IGROV-1, in the experiment on NCI-H226, in the experiment on NCI-H23, in the experiment with NCI-H460, in the experiment on NCI-H522 and with OVCAR-4 was > 100 µM (inactive) each time. Moreover, the GI50 in the experiment with OVCAR-8, in the experiment on SF-539 and in the experiment with UACC-62 was > 100 µM (inactive) in each case.
Consider `O=C1N(c2ccccc2)C(=O)C2(SC=NN2Cc2ccccc2)N1c1ccccc1` (stereo not given), for which the GI50 in the experiment with A498, with COLO 205, with EKVX, with HCT-116, in the experiment with HOP-92 and with HT-29 was > 100 µM (inactive) throughout. In addition, the GI50 with IGROV-1, with NCI-H226, in the experiment with NCI-H23, in the experiment on NCI-H460, with NCI-H522 and with OVCAR-4 was > 100 µM (inactive) in each case. The GI50 in the experiment on OVCAR-8, in the experiment on SF-539, with SN12C and in the experiment with UACC-62 was > 100 µM (inactive) throughout.
For the molecule `Cc1cccc(C(C)C)c1NC(=O)C(=O)CC(=O)c1c(C)[n+]([O-])c2ccccc2[n+]1[O-]`, the GI50 in the experiment on A498 was > 100 µM (inactive); in the experiment with COLO 205, 33.1 µM (inactive); with EKVX it was 30.7 µM (inactive); in the experiment on HCT-116, 32.1 µM (inactive); in the experiment with HOP-92 it was 67 µM (inactive); with HT-29, 34.4 µM (inactive). Further, the GI50 in the experiment with IGROV-1 is 30.2 µM (inactive); in the experiment with NCI-H226 it was > 100 µM (inactive); with NCI-H23 it was 18.8 µM (inactive); in the experiment with NCI-H460 it was 21.5 µM (inactive); in the experiment with NCI-H522, 21.9 µM (inactive); in the experiment on OVCAR-4, 25.4 µM (inactive). The GI50 with OVCAR-8 is 31.9 µM (inactive); in the experiment on SF-539, 36.9 µM (inactive); in the experiment on SN12C, 30.6 µM (inactive); in the experiment on UACC-62, 21.5 µM (inactive).
On to `CCO/C=C1\N=C(C(Cl)c2ccccc2)OC1=O` (stereo not given), for which the GI50 with A498, in the experiment with COLO 205, with EKVX, in the experiment with HOP-92, with HT-29 and in the experiment on IGROV-1 was > 100 µM (inactive) throughout. For the same molecule, the GI50 in the experiment with NCI-H226, in the experiment with NCI-H23, in the experiment with NCI-H460, in the experiment with NCI-H522, in the experiment on OVCAR-4 and in the experiment on OVCAR-8 was > 100 µM (inactive) throughout. In addition, the GI50 in the experiment on SF-539, in the experiment on SN12C and with UACC-62 was > 100 µM (inactive) each time.
On to `CC#C[I+]c1ccccc1`, for which the GI50 in the experiment with A498 was 60.5 µM (inactive); in the experiment on COLO 205, 12.9 µM (inactive); in the experiment with EKVX, 16.2 µM (inactive); with HCT-116, 19 µM (inactive); in the experiment on HOP-92, 16.4 µM (inactive); with HT-29, 17.3 µM (inactive). For the same molecule, the GI50 with IGROV-1 is 37.4 µM (inactive); in the experiment with NCI-H226 it was 33 µM (inactive); with NCI-H23, 18.1 µM (inactive); in the experiment with NCI-H460, 35.5 µM (inactive); with NCI-H522, 3.05 µM (inactive); in the experiment with OVCAR-4 it was 17.3 µM (inactive). For the same molecule, the GI50 was 15.1 µM (inactive) in the experiment with OVCAR-8, 18.2 µM (inactive) with SF-539, 12.3 µM (inactive) with SN12C and 22.3 µM (inactive) in the experiment on UACC-62.
`BrC1=CC=C2NC=CC3=CC=NC1C32` (stereo not given): the GI50 in the experiment with A498 is 30.3 µM (inactive); in the experiment on COLO 205, 21.6 µM (inactive); in the experiment on EKVX, 39.5 µM (inactive); with HCT-116, 6.03 µM (inactive); in the experiment with HOP-92, 15.7 µM (inactive); with HT-29 it was 14.9 µM (inactive). For the same molecule, the GI50 with IGROV-1 was 25.6 µM (inactive); with NCI-H226, 14.2 µM (inactive); with NCI-H23, 7.71 µM (inactive); with NCI-H460, 2.75 µM (inactive); in the experiment on NCI-H522, 11.5 µM (inactive); in the experiment on OVCAR-4, 27.7 µM (inactive). For the same molecule, the GI50 with OVCAR-8 was 16.4 µM (inactive); with SF-539, 12.6 µM (inactive); with SN12C it was 18.6 µM (inactive); in the experiment with UACC-62 it was 9.53 µM (inactive).
As for `CC1=NN(C(=O)CC(=O)Nc2ccccc2)C(=O)C1/N=N/c1ccc(S(N)(=O)=O)cc1` (stereo not given), the GI50 was > 100 µM (inactive) in the experiment with A498; > 100 µM (inactive) in the experiment with COLO 205; > 100 µM (inactive) in the experiment on EKVX; 48 µM (inactive) in the experiment on HCT-116; > 100 µM (inactive) in the experiment with HOP-92; > 100 µM (inactive) in the experiment on HT-29. The GI50 in the experiment on IGROV-1 is 34.7 µM (inactive); with NCI-H226 it was 39.1 µM (inactive); with NCI-H23, 78 µM (inactive); in the experiment with NCI-H460, 92.5 µM (inactive); with NCI-H522 it was 39 µM (inactive); in the experiment on OVCAR-4 it was 60.4 µM (inactive). Further, the GI50 with OVCAR-8 is 61.5 µM (inactive); with SF-539, 99.8 µM (inactive); with SN12C, 41.9 µM (inactive); with UACC-62, 32.8 µM (inactive).
In the case of `CC#C[P+](c1ccccc1)(c1ccccc1)c1ccccc1`, the GI50 was 39.4 µM (inactive) in the experiment with A498; 1.35 µM (inactive) with COLO 205; 4.83 µM (inactive) in the experiment on EKVX; 2.56 µM (inactive) with HCT-116; 2.16 µM (inactive) in the experiment on HOP-92; 3.25 µM (inactive) in the experiment on HT-29. In addition, the GI50 in the experiment on IGROV-1 is 6.95 µM (inactive); with NCI-H226, 3.13 µM (inactive); in the experiment on NCI-H23, 2.06 µM (inactive); in the experiment with NCI-H460, 2.48 µM (inactive); in the experiment on NCI-H522 it was 0.284 µM (active); with OVCAR-4, 6.49 µM (inactive). Besides, the GI50 in the experiment with OVCAR-8 is 0.962 µM (active); in the experiment with SF-539, 2.25 µM (inactive); with SN12C, 1.12 µM (inactive); in the experiment on UACC-62 it was 3.72 µM (inactive).
For the molecule `CC(=O)Oc1cc2c(=O)oc3c(OC(C)=O)c(OC(C)=O)c(OC(C)=O)c4c(=O)oc(c1OC(C)=O)c2c34`, the GI50 in the experiment with A498 is 65 µM (inactive); in the experiment on COLO 205, 59 µM (inactive); in the experiment on EKVX, 74 µM (inactive); in the experiment on HCT-116 it was 24 µM (inactive); in the experiment on HOP-92, 25.2 µM (inactive); in the experiment with HT-29, 37.9 µM (inactive). In addition, the GI50 is > 100 µM (inactive) in the experiment with IGROV-1; 43.9 µM (inactive) in the experiment with NCI-H226; > 100 µM (inactive) with NCI-H23; 34.7 µM (inactive) with NCI-H460; 37.4 µM (inactive) in the experiment on NCI-H522; 41.9 µM (inactive) in the experiment with OVCAR-4. The GI50 in the experiment on OVCAR-8 was 56.6 µM (inactive); in the experiment on SF-539, 24.8 µM (inactive); in the experiment on SN12C, 29 µM (inactive); in the experiment with UACC-62, 33.2 µM (inactive).
